≈ marks a conversion by molar mass, not a printed value. Like-named read-outs stand apart in the source and are kept apart here.
Tests used:
[1] = molecular target: T1, full-length beta-Catenin (Uniprot ID P35222) (Homo sapiens, UniProt P35222); experiment: Fluorescence polarization IC50 (beta-catenin / 5FAM-TCF4 10-53 competition); type: binding
T1 construct: 10 nM full-length beta-Catenin (Uniprot ID P35222)
T1 sequence (P35222 1-781): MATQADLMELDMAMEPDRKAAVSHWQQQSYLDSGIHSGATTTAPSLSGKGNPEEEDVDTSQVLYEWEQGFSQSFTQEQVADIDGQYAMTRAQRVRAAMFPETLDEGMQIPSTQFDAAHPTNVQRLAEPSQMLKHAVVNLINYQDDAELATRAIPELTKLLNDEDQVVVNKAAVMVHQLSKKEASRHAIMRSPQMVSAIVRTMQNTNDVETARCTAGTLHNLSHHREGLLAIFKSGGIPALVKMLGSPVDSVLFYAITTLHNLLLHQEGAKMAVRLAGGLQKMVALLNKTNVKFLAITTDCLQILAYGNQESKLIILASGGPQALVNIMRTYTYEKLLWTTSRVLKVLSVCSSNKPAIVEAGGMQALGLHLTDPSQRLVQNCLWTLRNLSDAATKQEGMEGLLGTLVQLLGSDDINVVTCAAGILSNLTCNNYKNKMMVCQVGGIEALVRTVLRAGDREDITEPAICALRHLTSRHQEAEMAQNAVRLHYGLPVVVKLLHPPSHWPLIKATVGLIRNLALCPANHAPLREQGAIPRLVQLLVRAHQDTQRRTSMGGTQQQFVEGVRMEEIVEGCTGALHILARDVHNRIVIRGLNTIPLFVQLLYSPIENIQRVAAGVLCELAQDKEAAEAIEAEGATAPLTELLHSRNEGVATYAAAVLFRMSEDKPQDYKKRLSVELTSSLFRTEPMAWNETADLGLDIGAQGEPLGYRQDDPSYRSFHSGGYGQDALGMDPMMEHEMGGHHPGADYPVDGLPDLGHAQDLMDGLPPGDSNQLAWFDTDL

CHI Log D procedure = type: physicochemical; conditions: for CHI Log D: pH 7.4; for chromatographic logD: pH 7.4, CHI Log D
Solubility in PBS = type: physicochemical
Procedure, shortened: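 Read-out is the HPLC peak area of the supernatant from ultracentrifuged PBS solution, scaled against a 50 μM peptide DMSO injection; value reported as [(PBS area)/(DMSO area)]*50 uM.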

[2] = fluorescence polarization, beta-catenin, read-out: FP EC50

IC50 [1, 2] [nM]	IC50 ([1]; read-out: beta-Catenin FP IC50) [nM]	CHI Log D (CHI Log D procedure)	Solubility (Solubility in PBS) [µM]	chromatographic logD (CHI Log D procedure)	Solubility (Solubility in PBS; Solubility (uM)) [µM]	Structure (SMILES)
324	324	2.06	10 (≈ 19.9 µg/mL)			CC(=O)N1CCC[C@]12CC=CCCCC1(CCCC=CCCCOC(=O)N3CC[C@@](C(=O)N[C@@H](Cc4ccccc4Cl)C(=O)N[C@@H](Cc4csc5ccccc45)C(=O)N[C@@H](CCC(N)=O)C(N)=O)(C3)NC(=O)[C@H](CC(C)C)NC(=O)[C@H](Cc3ccccc3)NC(=O)[C@H](C)NC(=O)[C@H](C)NC(=O)[C@H](CCC(=O)O)NC(=O)[C@H](CC(=O)O)NC1=O)NC(=O)[C@H](CC1CCCCC1)NC(=O)[C@H](CC(=O)O)NC2=O (stereo partly drawn) [I-1077, Ac-PL3-Asp-Cha-B5-Asp-Glu-Ala-Ala-Phe-Leu-PyrS2-2C1F-BztA-Gln-NH2]
352	352	2.162	27 (≈ 53.6 µg/mL)			CC(=O)N1CCC[C@]12CC=CCCCC1(CCCC=CCCCOC(=O)N3CC[C@@](C(=O)N[C@@H](Cc4ccccc4Cl)C(=O)N[C@@H](Cc4csc5ccccc45)C(=O)N[C@@H](CCC(N)=O)C(N)=O)(C3)NC(=O)[C@H](CC(C)C)NC(=O)[C@H](Cc3ccccc3)NC(=O)[C@H](C)NC(=O)[C@H](C)NC(=O)[C@H](CCC(=O)O)NC(=O)[C@H](CC(=O)O)NC1=O)NC(=O)[C@H](CC1CCCCC1)NC(=O)[C@H](CC(=O)O)NC2=O (stereo partly drawn) [I-1078, Ac-PL3-Asp-Cha-B5-Asp-Glu-Ala-Ala-Phe-Leu-PyrS2-2C1F-BztA-Gln-NH2]
390			10 (≈ 22.2 µg/mL)	3.7		CC(=O)N1CCC[C@]12CC=CCCCC1(CCCC=CCCCOC(=O)N3CC[C@@](C(=O)N[C@@H](Cc4ccccc4Cl)C(=O)N[C@@H](Cc4csc5ccccc45)C(=O)N[C@@H](CCC(N)=O)C(=O)NCCCCCCN=[N+]=[N-])(C3)NC(=O)[C@H](Cc3ccccc3)NC(=O)[C@H](Cc3ccccc3)NC(=O)[C@H](C)NC(=O)[C@H](C)NC(=O)[C@H](CN(CC(=O)O)CC(F)(F)F)NC(=O)[C@H](CC(=O)O)NC1=O)NC(=O)[C@H](CC(C)(C)C)NC(=O)[C@H](CC(=O)O)NC2=O (stereo partly drawn) [I-1085, Ac-PL3-Asp-Npg-B5-Asp-TfeGA-Ala-Ala-Phe-Phe-PyrS2-2C1F-BztA-Gln-6AzHex]
43	43	3.22	48 (≈ 90.1 µg/mL)			CC(=O)N1CCC[C@]12CC=CCCCC1(CCCC=CCCCCCC[C@@](C)(C(=O)N[C@@H](Cc3ccccc3Cl)C(=O)N[C@@H](Cc3csc4ccccc34)C(=O)N[C@@H](C(N)=O)[C@H](C)O)NC(=O)[C@H]([C@@H](C)O)NC(=O)[C@H](Cc3ccccc3)NC(=O)[C@H](C)NC(=O)[C@H](C)NC(=O)[C@H](CCC(=O)O)NC(=O)[C@H](CC(=O)O)NC1=O)NC(=O)[C@H](CC(C)(C)C)NC(=O)[C@H](CC(=O)O)NC2=O (stereo partly drawn) [I-1093, Ac-PL3-Asp-Npg-B5-Asp-Glu-Ala-Ala-Phe-Thr-S8-2C1F-BztA-dThr-NH2]
	100		10 (≈ 18.9 µg/mL)	3.54		CC(=O)N1CCC[C@]12CC=CCCCC1(CCCC=CCCCCCC[C@@](C)(C(=O)N[C@@H](Cc3ccccc3Cl)C(=O)N[C@@H](Cc3csc4ccccc34)C(=O)N[C@@H](C(N)=O)[C@H](C)O)NC(=O)[C@H](CC(C)C)NC(=O)[C@H](Cc3ccccc3)NC(=O)[C@H](C)NC(=O)[C@H](C)NC(=O)[C@H](CCC(=O)O)NC(=O)[C@H](CC(=O)O)NC1=O)NC(=O)[C@H](CC(C)(C)C)NC(=O)[C@H](CC(=O)O)NC2=O (stereo partly drawn) [I-1098, Ac-PL3-Asp-Npg-B5-Asp-Glu-Ala-Ala-Phe-Leu-S8-2ClF-BztA-dThr-NH2]
	16		10 (≈ 18.9 µg/mL)	2.39		CC(=O)N1CCC[C@]12CC=CCCCC1(CCCC=CCCCOC(=O)N3CC[C@@](C(=O)N[C@@H](Cc4ccccc4F)C(=O)N[C@@H](Cc4csc5ccccc45)C(=O)N[C@@H](CO)C(N)=O)(C3)NC(=O)[C@H](CO)NC(=O)[C@H](Cc3ccccc3)NC(=O)[C@H](C)NC(=O)[C@H](C)NC(=O)[C@H](CC(=O)O)NC(=O)[C@H](CC(=O)O)NC1=O)NC(=O)[C@H](CC1CCCCC1)NC(=O)[C@H](CC(=O)O)NC2=O (stereo partly drawn) [I-1102, Ac-PL3-Asp-Cha-B5-Asp-Asp-Ala-Ala-Phe-Ser-PyrS2-2FF-BztA-Ser-NH2]
	40		10 (≈ 19.3 µg/mL)	2.72		CC(=O)N1CCC[C@]12CC=CCCCC1(CCCC=CCCCOC(=O)N3CC[C@@](C(=O)N[C@@H](Cc4ccccc4Cl)C(=O)N[C@@H](Cc4csc5ccccc45)C(=O)N[C@@H](CO)C(N)=O)(C3)NC(=O)[C@H](CC(C)C)NC(=O)[C@H](Cc3ccccc3)NC(=O)[C@H](C)NC(=O)[C@H](C)NC(=O)[C@H](CC(=O)O)NC(=O)[C@H](CC(=O)O)NC1=O)NC(=O)[C@H](CC1CCCCC1)NC(=O)[C@H](CC(=O)O)NC2=O (stereo partly drawn) [I-1112, Ac-PL3-Asp-Cha-B5-Asp-Asp-Ala-Ala-Phe-Leu-PyrS2-2C1F-BztA-Ser-NH2]
	64		10 (≈ 19.7 µg/mL)	2.99		CC(=O)N1CCC[C@]12CC=CCCCC1(CCCC=CCCCOC(=O)N3CC[C@@](C(=O)N[C@@H](Cc4ccccc4Cl)C(=O)N[C@@H](Cc4csc5ccccc45)C(=O)N[C@@H](CO)C(N)=O)(C3)NC(=O)[C@H](CC3CCCCC3)NC(=O)[C@H](Cc3ccccc3)NC(=O)[C@H](C)NC(=O)[C@H](C)NC(=O)[C@H](CC(=O)O)NC(=O)[C@H](CC(=O)O)NC1=O)NC(=O)[C@H](CC1CCCCC1)NC(=O)[C@H](CC(=O)O)NC2=O (stereo partly drawn) [I-1113, Ac-PL3-Asp-Cha-B5-Asp-Asp-Ala-Ala-Phe-Cha-PyrS2-2C1F-BztA-Ser-NH2]
	40			2.62	13 (≈ 25.7 µg/mL)	CC(=O)N1CCC[C@]12CC=CCCCC1(CCCC=CCCCOC(=O)N3CC[C@@](C(=O)N[C@@H](Cc4ccccc4Cl)C(=O)N[C@@H](Cc4csc5ccccc45)C(=O)N[C@@H](CO)C(N)=O)(C3)NC(=O)[C@H](CC(C)C)NC(=O)[C@H](Cc3ccccc3)NC(=O)[C@H](C)NC(=O)[C@H](C)NC(=O)[C@H](CC(=O)O)NC(=O)[C@H](CC(=O)O)NC1=O)NC(=O)[C@H](Cc1cccc3ccccc13)NC(=O)[C@H](CC(=O)O)NC2=O (stereo partly drawn) [I-1116, Ac-PL3-Asp-1NapA-B5-Asp-Asp-Ala-Ala-Phe-Leu-PyrS2-2C1F-BztA-Ser-NH2]
	55		10 (≈ 19.7 µg/mL)	2.61		CC(=O)N1CCC[C@]12CC=CCCCC1(CCCC=CCCCOC(=O)N3CC[C@@](C(=O)N[C@@H](Cc4ccccc4Cl)C(=O)N[C@@H](Cc4csc5ccccc45)C(=O)N[C@@H](CO)C(N)=O)(C3)NC(=O)[C@H](CC(C)C)NC(=O)[C@H](Cc3ccccc3)NC(=O)[C@H](C)NC(=O)[C@H](C)NC(=O)[C@H](CC(=O)O)NC(=O)[C@H](CC(=O)O)NC1=O)NC(=O)[C@H](Cc1ccc3ccccc3c1)NC(=O)[C@H](CC(=O)O)NC2=O (stereo partly drawn) [I-1117, Ac-PL3-Asp-2NapA-B5-Asp-Asp-Ala-Ala-Phe-Leu-PyrS2-2C1F-BztA-Ser-NH2]
	39			2.33	29 (≈ 57.4 µg/mL)	CC(=O)N1CCC[C@]12CC=CCCCC1(CCCC=CCCCOC(=O)N3CC[C@@](C(=O)N[C@@H](Cc4ccccc4)C(=O)N[C@@H](Cc4csc5ccccc45)C(=O)N[C@@H](CCC(N)=O)C(N)=O)(C3)NC(=O)[C@H](CC(C)C)NC(=O)[C@H](Cc3ccc(C(F)(F)F)cc3)NC(=O)[C@H](C)NC(=O)[C@H](C)NC(=O)[C@H](CC(=O)O)NC(=O)[C@H](CC(=O)O)NC1=O)NC(=O)[C@H](CC(C)(C)C)NC(=O)[C@H](CC(=O)O)NC2=O (stereo partly drawn) [I-1129, Ac-PL3-Asp-Npg-B5-Asp-Asp-Ala-Ala-4F3MeF-Leu-PyrS2-Phe-BztA-Gln-NH2]

Reference: patent US20240116985A1, “STAPLED PEPTIDES AND METHODS THEREOF” (priority 2020, published 2024)
